In DBAASP one finds MIC data, which are given here for seven molecules.

Converted amounts (≈) assume the structure as drawn. “And” between values parts separate entries of the source, which are not always exact repeats. Equal entries are not always repeated.

What all share (experiment): ≥ marks a high value that may be exact or a test limit, other limits are often not marked, values filed in µg/mL are converted to µM
Assay [1] concerns Candida tropicalis ATCC 13803.
For assay [2], the system named is Candida albicans SC5314.
Assay [3] relates to Candida krusei ATCC 6258.
Assay [4] has as its system Candida parapsilosis ATCC 22019.
In assay [5] the test system is Candida glabrata ATCC 15126.
Assay [6] has as its system Salmonella enterica subsp. enterica serovar Typhimurium ATCC 14028.
Assay [7] concerns Salmonella enterica subsp. enterica serovar Typhimurium C77-31.
Assay [8] deals with Enterococcus faecalis ATCC 29212.
For assay [9], the system named is Salmonella enterica subsp. enterica serovar Pullorum C79-13.
Assay [10] relates to Escherichia coli ATCC 25922.
Assay [11] relates to Escherichia coli UB1005.
Assay [12] deals with Staphylococcus epidermidis ATCC 12228.
In assay [13] the test system is Bacillus subtilis CMCC 63501.
The test system of assay [14] is Staphylococcus aureus ATCC 29213.
The test system of assay [15] is Pseudomonas aeruginosa ATCC 27853.
Assay [16] deals with Salmonella typhimurium ATCC 7731.
Assay [17] has as its system Pseudomonas aeruginosa PAO1.
Assay [18] concerns Candida albicans C627.
The subject of assay [19] is Pseudomonas aeruginosa H103.
The subject of assay [20] is Escherichia coli ESBL 63103.
The subject of assay [21] is Enterococcus faecium mic80.
Assay [22] concerns Staphylococcus aureus C623.
The test system of assay [23] is Pseudomonas aeruginosa LES400.
Assay [24] concerns Staphylococcus aureus ATCC 25923.
The subject of assay [25] is Pseudomonas aeruginosa 213.
In assay [26] the test system is Klebsiella pneumoniae ATCC 700603.
In assay [27] the test system is Enterococcus faecium ATCC 700221.
Assay [28] has as its system Staphylococcus epidermidis ATCC 35984.
The subject of assay [29] is Acinetobacter baumannii ATCC 19606.
The subject of assay [30] is Staphylococcus aureus ATCC BAA-44.
For assay [31], the system named is Klebsiella pneumoniae ATCC 13883.
Assay [32] relates to Candida albicans ATCC 90028.
The subject of assay [33] is Listeria ivanovii.
Assay [34] deals with Escherichia coli NBRC 14237.
Assay [35] deals with Micrococcus luteus NBRC 12708.
Assay [36] deals with Saccharomyces cerevisiae NBRC 10217.
The subject of assay [37] is Staphylococcus aureus NBRC 12732.
The test system of assay [38] is Escherichia coli BL21 (DE3)-NDM-1.
Assay [39] concerns Staphylococcus epidermidis.
Assay [40] deals with Escherichia coli BL21(DE3).
Assay [41] has as its system Escherichia coli.
The test system of assay [42] is Pseudomonas aeruginosa.
Assay [43] relates to Staphylococcus aureus.
The subject of assay [44] is Candida albicans.
Assay [45] concerns Candida albicans ATCC 10231.
Assay [46] has as its system Klebsiella pneumoniae.

One may read the MIC as the least concentration at which growth counts as inhibited. Regarding `CC(C)C[C@H](NC(=O)[C@H](CC(C)C)NC(=O)[C@H](Cc1ccc(O)cc1)NC(=O)[C@H](CCCCN)NC(=O)[C@@H](N)CS)C(=O)N[C@@H](CCCN=C(N)N)C(=O)N[C@@H](Cc1c[nH]c2ccccc12)C(=O)N[C@@H](CCCN=C(N)N)C(=O)O` [CKYLLRWR], the MIC in assay [1] was no less than 44 µM; in [2], no less than 87.9 µM; in [3], no less than 44 µM; in assay [4] it was no less than 87.9 µM; in assay [5] it was 22 µM (≈ 25 µg/mL).
`CC[C@H](C)[C@H](NC(=O)[C@H](CCCCN)NC(=O)[C@H](CCCCN)NC(=O)[C@H](Cc1ccccc1)NC(=O)[C@H](CC(C)C)NC(=O)[C@H](CCCCN)NC(=O)[C@H](Cc1c[nH]c2ccccc12)NC(=O)[C@@H](N)CCCCN)C(=O)O` [KWKLFKKI]: the MIC in [6] was > 64 µM and 128 µM; in assay [7], no less than 128 µM; in assay [8] it was > 64 µM and 128 µM; in assay [9], no less than 128 µM; in assay [10], 64 µM and 128 µM; in assay [11], no less than 128 µM. The MIC in assay [12] is > 64 µM and 128 µM; in assay [13], no less than 64 µM; in assay [14] it was > 64 µM and 128 µM; in assay [15], > 64 µM and 128 µM; in assay [16], no less than 64 µM; in assay [17] it was greater than 64 µM.
`CC[C@H](C)[C@H](N)C(=O)N[C@@H](Cc1c[nH]c2ccccc12)C(=O)N[C@@H](CCCCN)C(=O)N[C@@H](CCCN=C(N)N)C(=O)N[C@@H](Cc1c[nH]c2ccccc12)C(=O)N[C@@H](Cc1c[nH]c2ccccc12)C(=O)N[C@@H](Cc1c[nH]c2ccccc12)C(=O)N[C@@H](CCCCN)C(=O)N[C@@H](CCCN=C(N)N)C(=O)O` [IWKRWWWKR]: the MIC was 22.1 µM (≈ 32 µg/mL) in assay [18]; no less than 88.6 µM in [19]; no less than 44.3 µM in assay [20]; no less than 88.6 µM in assay [21]; no less than 44.3 µM in assay [22]; no less than 88.6 µM in assay [23]. Also, the MIC in assay [24] is 88.6 µM (≈ 128 µg/mL); in assay [25] it was no less than 88.6 µM.
For the molecule `CC(C)C[C@H](NC(=O)[C@H](Cc1cnc[nH]1)NC(=O)[C@H](Cc1ccc(O)cc1)NC(=O)[C@H](CCCN=C(N)N)NC(=O)[C@H](Cc1ccc(O)cc1)NC(=O)[C@H](CCCCN)NC(=O)[C@@H](N)CCCCN)C(=O)N[C@@H](CCCCN)C(=O)N1CCC[C@H]1C(=O)N[C@@H](Cc1ccccc1)C(=O)N[C@@H](CS)C(=O)N[C@@H](CCCCN)C(=O)N[C@@H](CCCCN)C(=O)O` [KKYRYHLKPFCKK], the MIC in assay [8] was 294 µM (≈ 512 µg/mL); in assay [10], 147 µM (≈ 256 µg/mL); in [24], 294 µM (≈ 512 µg/mL); in assay [26], greater than 294 µM; in [15], greater than 294 µM; in assay [27], no less than 147 µM. Also, the MIC is no less than 73.6 µM in assay [28] and greater than 294 µM in assay [29].
`CC(C)C[C@H](NC(=O)[C@H](CCCN=C(N)N)NC(=O)CNC(=O)[C@H](Cc1ccccc1)NC(=O)[C@@H](N)Cc1ccccc1)C(=O)N[C@@H](CCCCN)C(=O)N[C@@H](CO)C(=O)N[C@H](C(=O)N[C@@H](Cc1c[nH]c2ccccc12)C(=O)N[C@@H](CO)C(=O)N[C@@H](C)C(=O)N[C@H](C(=O)N[C@@H](CCCCN)C(=O)N[C@@H](Cc1cnc[nH]1)C(=O)NCC(=O)N[C@@H](Cc1c[nH]c2ccccc12)C(=O)N[C@@H](CCCCN)C(=O)N[C@@H](C)C(=O)N[C@@H](C)C(=O)N[C@@H](CCCCN)C(=O)N[C@@H](CO)C(=O)N[C@@H](CCCN=C(N)N)C(=O)O)C(C)C)C(C)C` [FFGRLKSVWSAVKHGWKAAKSR]: the MIC in [30] was 3 µM (≈ 7.64 µg/mL); in assay [8] it was 12.5 µM (≈ 31.8 µg/mL); in assay [10] it was 4.24 µM (≈ 10.8 µg/mL); in assay [4], no less than 50 µM; in assay [24], 3 µM (≈ 7.64 µg/mL); in [31], 6 µM (≈ 15.3 µg/mL). For the same molecule, the MIC is 25 µM (≈ 63.7 µg/mL) in assay [32], 6 µM (≈ 15.3 µg/mL) in assay [15], 3 µM (≈ 7.64 µg/mL) in assay [33] and 3 µM (≈ 7.64 µg/mL) in assay [29].
For the molecule `CC[C@H](C)[C@H](NC(=O)[C@H](CC(C)C)NC(=O)[C@@H]1CCCN1C(=O)[C@H](CC(C)C)NC(=O)[C@H](CCCCN)NC(=O)[C@H](CCCCN)NC(=O)[C@H](CC(C)C)NC(=O)[C@H](CC(C)C)NC(=O)[C@H](C)NC(=O)[C@@H](NC(=O)[C@H](Cc1ccccc1)NC(=O)CN)C(C)C)C(=O)N[C@@H](CC(C)C)C(=O)N[C@@H](CCCCN)C(=O)N[C@@H](Cc1cnc[nH]1)C(=O)N[C@@H](CC(C)C)C(=O)N1CCC[C@H]1C(N)=O` [GFVALLKKLPLILKHLP], the MIC in assay [34] was found to be 3.12 µM (≈ 5.93 µg/mL); in [35], 6.25 µM (≈ 11.9 µg/mL); in assay [36] it was 25 µM (≈ 47.5 µg/mL); in [37] it was 3.12 µM (≈ 5.93 µg/mL).
In the case of `CC(C)C[C@H](NC(=O)[C@H](CCCCN)NC(=O)[C@H](CCCN=C(N)N)NC(=O)[C@H](Cc1ccccc1)NC(=O)[C@H](Cc1ccccc1)NC(=O)[C@H](CCCCN)NC(=O)[C@H](CCCN=C(N)N)NC(=O)[C@H](CC(C)C)NC(=O)[C@H](CC(C)C)NC(=O)[C@@H](N)CCCN=C(N)N)C(=O)N[C@@H](CCCCN)C(=O)N[C@@H](CCCCN)C(=O)N[C@@H](CO)C(=O)N[C@H](C(=O)O)C(C)C` [RLLRKFFRKLKKSV], the MIC in assay [38] was 4.4 µM (≈ 8 µg/mL); in assay [39], 17.6 µM (≈ 32 µg/mL); in [40], 8.79 µM (≈ 16 µg/mL); in [10], 17.6 µM (≈ 32 µg/mL); in assay [41] it was 17.6 µM (≈ 32 µg/mL); in [24], 35.2 µM (≈ 64 µg/mL). Moreover, the MIC in [42] stood at 17.6 µM (≈ 32 µg/mL); in assay [43] it was 17.6 µM (≈ 32 µg/mL); in assay [44], 35.2 µM (≈ 64 µg/mL); in assay [15], 8.79 µM (≈ 16 µg/mL); in [45], 35.2 µM (≈ 64 µg/mL); in assay [46], 17.6 µM (≈ 32 µg/mL).
